# Measurements published in the NIST ThermoML archive (doi:10.1021/je9006234).
# Numbers after ± are expanded uncertainties.
# Details: 298.15 K; 101.33 kPa; Liquid
row,Compound,mass density [kg/m3]
1,c1ccc2[nH]ccc2c1 [1H-indole],1216.68 ± 1.3
2,Nc1ccccc1 [aniline],1017.42 ± 0.19
3,CN(C)C=O [dimethylformamide],944.21 ± 0.23
4,CCCCCCCCCCCCCCCC [hexadecane],773.19 ± 0.32
5,c1ccncc1 [pyridine],978.25 ± 0.27

# Further lines, results first:
row,mass density [kg/m3],Compound
1,965.9 ± 2.9,c1cc[nH]c1 [pyrrole]
2,1089.45 ± 0.31,c1ccc2ncccc2c1 [quinoline]
